Results from patent US20100216817A1, “Antitumoral Tetrahydro-Pyrimidines” (Pharma Mar SA, priority 2005, published 2010).
Read-outs that look alike come from different tables or passages of the source.

Tests used:
SK-BR3 = experiment: SRB colorimetric cell growth inhibition assay; settings: for GI50 / CC50: Homo sapiens, SK-BR-3, 48 h; for CC50: read-out: LC50; for TGI: SK-BR3, breast, 48 hours exposure
LN-caP = experiment: SRB colorimetric cell growth inhibition assay
SK-MEL-28 = experiment: SRB colorimetric cell growth inhibition assay; settings: for GI50 / CC50: Homo sapiens, SK-MEL-28, 48 h; for CC50: read-out: LC50; for TGI: SK-MEL-28, melanoma, 48 hours exposure
A549 = experiment: SRB colorimetric cell growth inhibition assay; settings: for TGI: A549, NSCL, 48 hours exposure; for GI50 / CC50: Homo sapiens, A549, 48 h; for CC50: read-out: LC50
HELA = experiment: SRB colorimetric cell growth inhibition assay; settings: for TGI: HELA, cervix, 48 hours exposure; for GI50 / CC50: Homo sapiens, HeLa, 48 h; for CC50: read-out: LC50
DU-145 = experiment: SRB colorimetric cell growth inhibition assay; settings: for TGI: DU-145, prostate, 48 hours exposure; for GI50 / CC50: Homo sapiens, DU-145, 48 h; for CC50: read-out: LC50
HELA-APL = experiment: SRB colorimetric cell growth inhibition assay; settings: for TGI: HELA-APL, cervix, Aplidine resistant, 48 hours exposure; for GI50 / CC50: Homo sapiens, 48 h; for CC50: read-out: LC50
HT29 = experiment: SRB colorimetric cell growth inhibition assay; settings: for TGI: HT29, colon, 48 hours exposure; for GI50 / CC50: Homo sapiens, HT-29, 48 h; for CC50: read-out: LC50
LOVO-DOX = experiment: SRB colorimetric cell growth inhibition assay; settings: for GI50 / CC50: Homo sapiens, 48 h; for CC50: read-out: LC50; for TGI: LOVO-DOX, colon (MDR), 48 hours exposure
LOVO = experiment: SRB colorimetric cell growth inhibition assay; settings: for GI50 / CC50: Homo sapiens, LoVo, 48 h; for CC50: read-out: LC50; for TGI: LOVO, colon, 48 hours exposure
PANC1 = experiment: SRB colorimetric cell growth inhibition assay; settings: for GI50 / CC50: Homo sapiens, PANC-1, 48 h; for CC50: read-out: LC50; for TGI: PANC1, pancreas, 48 hours exposure
IGROV = experiment: SRB colorimetric cell growth inhibition assay; settings: for GI50 / CC50: Homo sapiens, 48 h; for CC50: read-out: LC50; for TGI: ovary, 48 hours exposure
IGROV-ET = experiment: SRB colorimetric cell growth inhibition assay; settings: for GI50 / CC50: Homo sapiens, 48 h; for CC50: read-out: LC50; for TGI: IGROV-ET, ovary, 48 hours exposure
Streptococcus fecalis = settings: J. Org. Chem. 1992, 57, 3832-3835; cited from earlier work
Pseudomonas aeruginosa = settings: cited from earlier work
Bacteroides fragilis = settings: Tetrahedron 1994, 50, 3415-3426; cited from earlier work
[1] = tested on: Peptococcus assaccharolyticus; settings: Tetrahedron 1994, 50, 3415-3426; cited from earlier work
Clostridium perfringens = settings: Tetrahedron 1994, 50, 3415-3426; cited from earlier work
Staphylococcus aureus = settings: cited from earlier work
Escherichia coli = settings: cited from earlier work
[2] = J. Org. Chem. 1992, 57, 3832-3835
[3] = Tetrahedron 1994, 50, 3415-3426

CCCCCCC#C/C=C\CCCCCCCC1=NCCCN1CCCCNC(=N)N [Compound A]
GI50 (SK-BR3): 789 nM
CC50 (SK-BR3): 1810 nM
TGI (SK-BR3): 1.20E−6 Molar
GI50 (LN-caP; Homo sapiens, LNCaP, 48 h): 333 nM
CC50 (LN-caP; Homo sapiens, LNCaP, 48 h, read-out: LC50): 1370 nM
TGI (LN-caP; LN-caP, prostate, 48 hours exposure): 6.73E−7 Molar
GI50 (SK-MEL-28): 649 nM
CC50 (SK-MEL-28): 7.66 µM
TGI (SK-MEL-28): 2.49E−6 Molar
TGI (A549): 3.61E−6 Molar
GI50 (A549): 1220 nM
CC50 (A549): 12.5 µM
TGI (HELA): 2.42E−6 Molar
GI50 (HELA): 801 nM
CC50 (HELA): 1040 nM
TGI (DU-145): 8.80E−7 Molar
GI50 (DU-145): 424 nM
CC50 (DU-145): 1830 nM
TGI (HELA-APL): 1.07E−6 Molar
GI50 (HELA-APL): 540 nM
CC50 (HELA-APL): 2110 nM
TGI (HT29): 2.98E−6 Molar
GI50 (HT29): 1010 nM
CC50 (HT29): 8.42 µM
GI50 (LOVO-DOX): 1780 nM
CC50 (LOVO-DOX): 13 µM
TGI (LOVO-DOX): 5.14E−6 Molar
GI50 (LOVO): 475 nM
CC50 (LOVO): 1410 nM
TGI (LOVO): 8.17E−7 Molar
GI50 (PANC1): 535 nM
CC50 (PANC1): 2910 nM
TGI (PANC1): 1.16E−6 Molar
GI50 (IGROV): 579 nM
CC50 (IGROV): 5.31 µM
TGI (IGROV): 1.53E−6 Molar
GI50 (IGROV-ET): 463 nM
CC50 (IGROV-ET): 4.42 µM
TGI (IGROV-ET): 1.26E−6 Molar

N=C(N)NCCCCN1CCCN=C1CCCCCCCC=O [Compound B]
GI50 (SK-BR3): > 9290 nM
CC50 (SK-BR3): > 9290 nM
TGI (SK-BR3): >9.29E−6 Molar
GI50 (SK-MEL-28): > 9290 nM
CC50 (SK-MEL-28): > 9.29 µM
TGI (SK-MEL-28): >9.29E−6 Molar
TGI (A549): >9.29E−6 Molar
GI50 (A549): > 9290 nM
CC50 (A549): > 9.29 µM
TGI (HELA): >9.29E−6 Molar
GI50 (HELA): > 9290 nM
CC50 (HELA): > 9290 nM
TGI (DU-145): >9.29E−6 Molar
GI50 (DU-145): > 9290 nM
CC50 (DU-145): > 9290 nM
TGI (HELA-APL): >9.29E−6 Molar
GI50 (HELA-APL): > 9290 nM
CC50 (HELA-APL): > 9290 nM
TGI (HT29): >9.29E−6 Molar
GI50 (HT29): > 9290 nM
CC50 (HT29): > 9.29 µM
GI50 (LOVO-DOX): > 9290 nM
CC50 (LOVO-DOX): > 9.29 µM
TGI (LOVO-DOX): >9.29E−6 Molar
GI50 (LOVO): > 9290 nM
CC50 (LOVO): > 9290 nM
TGI (LOVO): >9.29E−6 Molar
GI50 (PANC1): > 9290 nM
CC50 (PANC1): > 9290 nM
TGI (PANC1): >9.29E−6 Molar
GI50 (IGROV): > 9290 nM
CC50 (IGROV): > 9.29 µM
TGI (IGROV): >9.29E−6 Molar
GI50 (IGROV-ET): > 9290 nM
CC50 (IGROV-ET): > 9.29 µM
TGI (IGROV-ET): >9.29E−6 Molar

Phloeodictine A
MIC (Streptococcus fecalis): 5 µg/mL
MIC (Pseudomonas aeruginosa; [2]): 10 µg/mL
MIC (Pseudomonas aeruginosa; [3]): 30 µg/mL
MIC (Bacteroides fragilis): 1 µg/mL
MIC [1]: 10 µg/mL
MIC (Clostridium perfringens): 30 µg/mL
MIC (Staphylococcus aureus; [2]): 1 µg/mL
MIC (Staphylococcus aureus; [3]): 3 µg/mL
MIC (Escherichia coli; [2]): 1 µg/mL
MIC (Escherichia coli; [3]): 3 µg/mL

Phloeodictine B
MIC (Streptococcus fecalis): > 15 µg/mL
MIC (Pseudomonas aeruginosa; [2]): > 30 µg/mL
MIC (Bacteroides fragilis): > 30 µg/mL
MIC [1]: > 30 µg/mL
MIC (Clostridium perfringens): > 30 µg/mL
MIC (Staphylococcus aureus; [2]): 3 µg/mL
MIC (Staphylococcus aureus; [3]): 30 µg/mL
MIC (Escherichia coli; [2]): 30 µg/mL
MIC (Escherichia coli; [3]): 30 µg/mL
